Measured values published in patent US5366980A, “Use of dextromethorphan and an oxidase inhibitor to treat dermatitis” (priority 1993, dated 1994).
“And” between values parts separate entries of the source, which are not always exact repeats. Equal entries are not always repeated. “Also recorded” adds a separate entry of the source. Structures can show the parent of a compound that is named as a salt.

Tests used:
[1] = system: debrisoquin hydroxylase (sparteine monooxygenase); conditions: Inaba et al 1985, cited from earlier work
[2] = system: debrisoquin hydroxylase; assay: Urinary DM/DR ratio with other antioxidants in specific patients (Example 5)
From the text: The second method involves sampling body fluids to compare the concentrations of DM and its primary metabolite, dextrorphan (DR). Although blood concentrations can be directly evaluated by drawing blood samples if desired, an easier and painless approach is to analyze urine samples. Blood or urine samples can be processed using methods such as high performance liquid chromatography (HPLC), as described in Example 5. […] The height of each peak, or the area under each peak, will indicate the quantity of each compound in the blood or urine sample. The heights of the DM and DR peaks are then divided, to determine the DM/DR ratio. The ratio which occurs after administration of a candidate antioxidant drug is compared to the DM/DR ratio in the same patient under control conditions (i.e., before administration of any antioxidant).
Preliminary Analysis of Other Antioxidants
To further evaluate that possibility, the Applicant arranged for chemical analyses of urine samples, using HPLC, in the labs of an independent investigator.

[3] = system: N-methyl-D-aspartate (NMDA) receptors; conditions: reportedly; cited from earlier work
[4] = system: neuronal calcium channels; conditions: reportedly; Carpenter et al 1988; cited from earlier work
[5] = system: sigma receptors; conditions: reportedly; cited from earlier work
[6] = Plasma concentration of DM 10-12 hours after oral dosing, without and with quinidine (Examples 2 and 3); assay type: in vivo, human; conditions: effect of quinidine on plasma DM, words
Method: Plasma Concentrations of DM
Five patients were orally administered 120 mg of DM, with no co-administration of quinidine. Between 10 and 12 hours later, blood was sampled, blood plasma was isolated by centrifugation, and the plasma was analyzed to determine the DM concentration using the thebaine/HPLC method.
During a different week, the same patients were orally administered 60 mg of DM (half the control dosage) and 150 mg of quinidine. Between 10 and 12 hours later, blood was sampled and the plasma was analyzed for DM using thebaine/HPLC.
Additional studies were undertaken using a range of dosages of DM to establish a dose-response curve that correlates the quantity of DM orally administered to a patient with blood plasma concentrations 10 to 12 hours later (determined as described in Example 2). All patients received 150 mg of quinidine daily. The results of those studies are shown in graphical form in FIG. 2, with mean values shown as open squares and standard deviation ranges shown by vertical bars. The ascending line through the median values is a linear approximation; a curve based on more extensive data would probably show a horizontal asymptote.

[7] = system: liver cell preparations; conditions: Broly et al 1989; cited from earlier work
[8] = system: debrisoquin hydroxylase; assay: Urinary DM/DR ratio after oral dextromethorphan without and with quinidine (Example 1); assay type: in vivo, human; conditions: 150 mg quinidine + 60 mg DM
Method: Since the research that led to this invention was done by a neurologist who was initially interested in finding out whether DM might be able to retard the progress of ALS, the initial studies were done on patients suffering from ALS, most of whom are adults more than 50 years old.
Six patients suffering from ALS were administered orally a single 60 mg dextromethorphan dose. Several hours later, a urine sample was collected, and the urine concentrations of dextromethorphan (DM) and dextrorphan (DR) were measured as described below to determine a DM/DR ratio. […] In a different week, 60 mg of DM and 150 mg of quinidine were orally administered to the same patients, and urinary DM and DR levels and DM/DR ratios were determined again.
DM and DR urinary levels without quinidine were determined by adding […] of thebaine as an internal standard to 1 mL of urine. To this was added 2000 units of beta-glucuronidase in 1 mL of acetate buffer (0.1M, pH 5.0). The mixture was incubated for 18 hours at 37° C. and then extracted by adding 1 mL of phosphate buffer (pH 12, 0.10M) and 7 mL of n-butanol/hexane (10:90 v/v). After mixing and centrifugation, the organic layer was transferred to a clean tube and acidified with 400 uL of 0.01 N HCL. 20 microliters (uL) of aqueous phase was injected into a high performance liquid chromatography (HPLC) system. The HPLC used a phenyl column equilibrated with a mobile phase of acetonitrile:water (51:49, v/v) containing 10 mM KHPO4, 10 mM hexane sulfonic acid, pH 4.0 (flow rate 1.2 mL/min). Detection of thebaine, dextromethorphan and dextrorphan was achieved by fluorescence (Kratos FS-980 Fluorometer) with an excitation wavelength of 228 nm and no emission cutoff filter.
A gas chromatograph/mass spectroscopy (gc/ms) assay was employed for determining dextromethorphan and dextrorphan levels in the presence of quinidine. Briefly, 0.5 ml urine samples were spiked with 500 nanograms (ng) of dimethacrine. The urine pH was adjusted to 5.0 with 0.1M acetate buffer (usually about 1.0 ml), and beta-glucuronidase was added (2000 units/ml urine). […]

[9] = system: ALS patients; conditions: DM up to about 300 mg/day or higher; quinidine in prolonged QT interval; cited from earlier work

| Compound | In vitro activity in inhibiting debrisoquin hydroxylase [1] | also measured |
| --- | --- | --- |
| CC(C)NCC(O)COc1cccc2ccccc12 (stereo not drawn) [propranolol] | significant in vitro activity |  |
| CC(CCc1ccccc1)NCC(O)c1ccc(O)c(C(N)=O)c1 (stereo not drawn) [labetalol] | significant in vitro activity |  |
| CNCCC(Oc1ccc(C(F)(F)F)cc1)c1ccccc1 (stereo not drawn) [fluoxetine] |  | Effect on DM concentrations in the blood / debrisoquin hydroxylase oxidative activity ([2]; ALS patient taking fluoxetine, research by the Applicant): can suppress the oxidative activity of the debrisoquin hydroxylase enzyme, albeit at a potency substantially below that of quinidine; also recorded: effective in increasing DM concentrations in the blood |
| CN1CC[C@@]23CCCC[C@@H]2[C@@H]1Cc1ccc(O)cc13 [dextrorphan] |  | Activity at NMDA receptors [3]: NMDA antagonists; Activity at neuronal calcium channels [4]: calcium channel antagonists; Activity at sigma receptors [5]: sigma agonists |
| Cc1cccc(C)c1OCC(C)N (stereo not drawn) [mexiletine] | significant in vitro activity |  |
| COC(=O)[C@@H]1[C@H]2C[C@H]3c4[nH]c5ccccc5c4CCN3C[C@@H]2CC[C@@H]1O [yohimbine] | significant in vitro activity; also recorded: relatively potent |  |
| O=C(CCCN1CCC(O)(c2ccc(Cl)cc2)CC1)c1ccc(F)cc1 [haloperidol] | significant in vitro activity; also recorded: relatively potent |  |
| CC[C@H]1[C@@H]2C[C@H]3[C@@H]4N(C)c5ccccc5[C@]45C[C@@H]([C@H]2[C@H]5O)N3[C@@H]1O [ajmaline] | significant in vitro activity; also recorded: relatively potent |  |
| C=C[C@H]1C[N@@]2CC[C@H]1C[C@H]2[C@H](O)c1ccnc2ccc(OC)cc12 [quinine] | significant in vitro activity |  |
| C=C[C@H]1C[N@@]2CC[C@H]1C[C@H]2[C@H](O)c1ccnc2ccc(OC)cc12 [quinine sulfate] |  | DM/DR ratio (antioxidant) ([2]; urine, HPLC, antioxidant in brackets, preliminary, one value per patient): 0.09 and 0.05 |
| CNCCC=C1c2ccccc2CCc2ccccc21 [nortriptyline] | significant in vitro activity |  |
| COCCc1ccc(OCC(O)CNC(C)C)cc1 (racemic) [metaprolol] | significant in vitro activity |  |
| CC(C)(C)NC[C@H](O)COc1nsnc1N1CCOCC1 [timolol] | significant in vitro activity |  |
| COc1ccc(Cc2nccc3cc(OC)c(OC)cc23)cc1OC [papaverine] | significant in vitro activity |  |
| C=C[C@H]1C[N@@]2CC[C@H]1C[C@@H]2[C@@H](O)c1ccnc2ccc(OC)cc12 [quinidine] | most powerful of these inhibitors; also recorded: most potent inhibitor of the sparteine monooxygenase enzyme; also recorded: potent inhibitor of the debrisoquin hydroxylase enzyme | DM plasma level, with or without quinidine [6]: major increase in the concentration of DM in the blood plasma; also recorded: pronounced effect in increasing and stabilizing the quantity of DM circulating in the blood; also recorded: highly effective in increasing DM concentrations; Ki ([1]; in vitro, read-out: Ki (Michaelis-Menton inhibition)): 60 nM; DM oxidation / metabolism in liver cell preparations [7]: suppresses DM oxidation in liver cell preparations; Increase of DM/DR ratio, all test subjects ([8]; all test subjects): at least 2 orders of magnitude; Increase of DM/DR ratio, usually ([8]; usual case): more than 3 orders of magnitude; Adverse effects (general knowledge) [9]: cardiac arrest (which can be fatal) |
| C=CCOc1ccccc1OCC(O)CNC(C)C (stereo not drawn) [oxprenolol] | significant in vitro activity |  |
| NC(=O)C1(N2CCCCC2)CCN(CCCC(=O)c2ccc(F)cc2)CC1 [pipamperone] | significant in vitro activity; also recorded: relatively potent |  |
| O=c1[nH]c2ccccc2n1CCCN1CCC(n2c(=O)[nH]c3cc(Cl)ccc32)CC1 [domperidone] | significant in vitro activity |  |
| CN1[C@@H](CC(=O)c2ccccc2)CCC[C@H]1C[C@H](O)c1ccccc1 [lobeline] | significant in vitro activity; also recorded: relatively potent |  |
